Tests used:
Assay type in all cases: in vivo
[1] = system: Vetch Aphid (Megoura viciae); assay: Vetch aphid (Megoura viciae), bean leaf disk microtiterplate test; conditions: foliar, 144 h, concentration of the test solution 2500 mg/L, 6 days
Experimental: The active compounds were formulated in 1:3 (vol:vol) DMSO:water with different concentrations of formulated compounds.
Bean leaf disks were placed into microtiterplates filled with 0.8% agar-agar and 2.5 ppm OPUS™. The leaf disks were sprayed with 2.5 μl of the test solution and 5 to 8 adult aphids were placed into the microtiterplates which were then closed and kept at 23±1° C. and 50±5% relative humidity under fluorescent light for 6 days. Mortality was assessed on the basis of vital, reproduced aphids. Aphid mortality and fecundity was then visually assessed.

[2] = system: Mediterranean Fruitfly (Ceratitis capitata); assay: Activity against Mediterranean fruitfly (Ceratitis capitata), insect diet microtiter plate test; conditions: 120 h, eggs treated with 2500 ppm, egg and larval mortality after 5 days
Experimental: The active compounds were formulated in 1:3 (vol:vol) DMSO:water.
For evaluating control of Mediterranean fruitfly the test unit consisted of microtiter plates containing an insect diet and 50 to 80 C. capitata eggs.
Different concentrations of formulated compounds were sprayed onto the insect diet at 5 μl, using a custom built micro atomizer, at two replications. After application, microtiter plates were incubated at 28±1° C. and 80±5% relative humidity for 5 days. Egg and larval mortality was then visually assessed.

[3] = system: Boll Weevil (Anthonomus grandis); assay: Boll weevil (Anthonomus grandis), insect diet microtiter plate test; conditions: 120 h, concentration of the test solution 2500 mg/L, egg and larval mortality after 5 days
Experimental: The compounds were formulated in 75:25 (vol:vol) water:DMSO.
For evaluating control of boll weevil (Anthonomus grandis) the test unit consisted of 24-well-microtiter plates containing an insect diet and 20-30 A. grandis eggs. Different concentrations of formulated compounds were sprayed onto the insect diet at 20 μl, using a custom built micro atomizer, at two replications. After application, the microtiter plates were incubated at 23±1° C. and 50±5% relative humidity for 5 days. Egg and larval mortality was then visually assessed.

[4] = system: Southern Armyworm (spodoptera eridania, 2nd instar larvae); assay: Southern armyworm (spodoptera eridania, 2nd instar larvae), lima bean leaf dip test; conditions: foliar, 96 h, at 4 days, in comparison with untreated controls
Experimental: (§1) The active compounds were formulated in 50:50 (vol:vol) acetone:water and 100 ppm Kinetica™ surfactant.
A pair of first true leaves of Sieva lima bean was dipped in the test solution and allowed to dry. The leaf was then placed in a plastic perforated zip enclosure bag and ten 2nd instar larvae were added. At 4 days, observations were made of mortality and reduced feeding.

[5] = system: Cotton Aphid (aphis gossypii, Mixed Life Stages); assay: Cotton aphid (aphis gossypii, mixed life stages), cotyledon dip test; conditions: 120 h, mortality counts after 5 days, in comparison with untreated controls
Text: as §1
Cotton plants at the cotyledon stage (one plant per pot) were infested by placing a heavily infested leaf from the main colony on top of each cotyledon. The aphids were allowed to transfer to the host plant overnight, and the leaf used to transfer the aphids was removed. The cotyledons were dipped in the test solution and allowed to dry. After 5 days, mortality counts were made.

[6] = system: Green Peach Aphid (Myzus persicae, Mixed Life Stages); assay: Green peach aphid (Myzus persicae, mixed life stages), pepper leaf dip test; conditions: foliar, 120 h, after 5 days, in comparison with untreated controls
Text: as §1
Pepper plants in the 2nd leaf-pair stage (variety ‘California Wonder’) were infested with approximately 40 laboratory-reared aphids by placing infested leaf sections on top of the test plants. The leaf sections were removed after 24 hr. The leaves of the intact plants were dipped into gradient solutions of the test compound and allowed to dry. Test plants were maintained under fluorescent light (24 hour photoperiod) at about 25° C. and 20-40% relative humidity. Aphid mortality on the treated plants, relative to mortality on check plants, was determined after 5 days.

[7] = system: Bean Aphid (Aphis fabae); assay: Bean aphid (Aphis fabae), nasturtium plant dip test; conditions: 72 h, after 3 days, in comparison with untreated controls
Text: as §1
Nasturtium plants grown in Metro mix in the 1st leaf-pair stage (variety ‘Mixed Jewel’) were infested with approximately 2-30 laboratory-reared aphids by placing infested cut plants on top of the test plants. The cut plants were removed after 24 hr. Each plant was dipped into the test solution to provide complete coverage of the foliage, stem, protruding seed surface and surrounding cube surface and allowed to dry in the fume hood. The treated plants were kept at about 25° C. with continuous fluorescent light. Aphid mortality is determined after 3 days.

[8] = system: Cowpea Aphid (aphis craccivora); assay: Cowpea aphid (aphis craccivora), spray on potted cowpea plants; conditions: population reduction assessed after 24, 72 and 120 hours, in comparison with untreated controls
Experimental: The active compounds were formulated in 50:50 (vol:vol) acetone:water. The test solution was prepared at the day of use.
Potted cowpea plants colonized with 100-150 aphids of various stages were sprayed after the pest population had been recorded. Population reduction was assessed after 24, 72, and 120 hours.

[9] = system: Silverleaf Whitefly (bemisia argentifolii, adult); assay: Silverleaf whitefly (bemisia argentifolii, adult), cotton cotyledon dip test; conditions: 72 h, 3 days after treatment, in comparison with untreated controls
Experimental: as §1
Selected cotton plants were grown to the cotyledon state (one plant per pot). The cotyledons were dipped into the test solution to provide complete coverage of the foliage and placed in a well-vented area to dry. Each pot with treated seedling was placed in a plastic cup and 10 to 12 whitefly adults (approximately 3-5 day old) were introduced. The insects were collected using an aspirator and an 0.6 cm, non-toxic Tygon® tubing (R-3603) connected to a barrier pipette tip. The tip, containing the collected insects, was then gently inserted into the soil containing the treated plant, allowing insects to crawl out of the tip to reach the foliage for feeding. The cups were covered with a reusable screened lid (150 micron mesh polyester screen PeCap from Tetko Inc). Test plants were maintained in the holding room at about 25° C. and 20-40% relative humidity for 3 days avoiding direct exposure to the fluorescent light (24 hour photoperiod) to prevent trapping of heat inside the cup. Mortality was assessed 3 days after treatment of the plants.

SMILES	mortality at 2500 µg/mL [1] [%]	mortality at 2500 ppm [2] [%]	mortality at 2500 µg/mL [3] [%]	mortality at 300 ppm [4] [%]	mortality at 300 ppm [5] [%]	mortality at 300 ppm [6] [%]	mortality at 10 ppm [7] [%]	mortality at 300 ppm [8] [%]	mortality at 300 ppm [9] [%]
CN(C(=O)c1cn(CC(F)F)nc1C(F)(F)F)c1cccnc1 [Compound 234]	≥ 80	50	100						
O=C(Nc1cccnc1)c1cn[nH]c1-c1cccs1 [Compound 77]		50		≥ 50					
O=C(Nc1cccnc1)c1cnn(-c2ccccc2)c1Cl [Compound 123]	≥ 80				≥ 75	≥ 50	≥ 90	≥ 75	
Cc1c(C(=O)Nc2cccnc2)cnn1-c1ccc(Cl)cc1 [Compound 142]	≥ 80				≥ 75	≥ 50	≥ 90	≥ 75	
CCN(C(=O)c1cn(C)nc1C(F)(F)F)c1cccnc1 [Compound 127]	≥ 80				≥ 75	≥ 50	≥ 90		
Cn1cc(C(=O)Nc2cccnc2)c(C(F)(F)F)n1 [Compound 13, 1-methyl-3-trifluoromethyl-1H-pyrazole-4-carboxylic acid pyridin-3-ylamide]			≥ 50				≥ 90		
Cn1cc(C(=O)Nc2cccnc2)c(C(F)(F)F)n1 [Compound 100]	≥ 80	50							≥ 50
CCn1cc(C(=O)N(C)c2cccnc2)c(C(F)(F)F)n1 [Compound 183]	≥ 80	50			≥ 75	≥ 50		≥ 75	
Cc1c(C(=O)Nc2cccnc2)cnn1-c1nccs1 [Compound 116]	≥ 80		100		≥ 75	≥ 50	≥ 90	≥ 75	
CCCN(C(=O)c1cn(C)nc1C(F)(F)F)c1cccnc1 [Compound 129]							≥ 90		

— patent US8642597B2, “Pyrazole compounds for controlling invertebrate pests” (BASF SE, priority 2007, dated 2014)
